Patent publication US11179377B2, “Pharmaceutical compositions and uses thereof” (Embera NeuroTherapeutics, Inc., priority 2017, dated 2021)

What was measured:
Type in all cases: physicochemical
[1] = Metyrapone-Oxazepam Compatibility Study, overall conclusions
Description: A study was conducted to assess the compatibility between oxazepam and metyrapone in a single pharmaceutical composition (e.g., single tablet unit containing both compounds).
(§1) Binary mixtures of the drug substances were prepared, stressed at 40° C./75% RH for 4 weeks and evaluated by the assay and related substances method using both analytical methods. Prototype blends containing oxazepam and metyrapone were prepared that would represent potential approaches for a single unit combination tablet with (i) one prototype using dry granulation and (ii) one prototype using wet granulation. The blends were stressed at 25° C./60% RH and at 40° C./75% RH for 4 weeks and evaluated.
The compatibility between the two compounds was evaluated as (i) neat API mixtures (1:15 and 1:30 ratios of oxazepam:metyrapone) and (ii) in prototype matrices that are representative of final forms if a simple combination tablet were to be manufactured (see Table 16). […]
Samples of API mixtures and prototype tablets (created from slugs compressed on a Carver press) were stored at 25° C./60% RH and at 40° C./75% RH in glass vials with screw caps. Samples were removed from storage after 4 weeks and analyzed for metyrapone, oxazepam and related substances using both HPLS analytical methods (Test methods A and B). […]

[2] = Metyrapone Assay and Related Substances after 4 Weeks of Storage (HPLC Test Method B); conditions: for Assay at 1 mo (metyrapone) / Total imps at 1 mo: metyrapone method (Test Method B)
Description: as §1
Accurately weigh samples into a 500 mL volumetric flask. Add approximately 1 to 2 mL of water to disintegrate. Add sample diluent, sonicate for 15 minutes, shake for 15 minutes, and then bring to volume with sample diluent and mix well. Filter this solution and dilute to an appropriate sample concentration with sample diluent, and analyze by HPLC using the chromatographic conditions below.
(§2) The compatibility between the two compounds was evaluated as (i) neat API mixtures (1:15 and 1:30 ratios of oxazepam:metyrapone) and (ii) in prototype matrices that are representative of final forms if a simple combination tablet were to be manufactured (see Table 16). These prototypes have metyrapone and oxazepam ratios representative of a 720 mg metyrapone/24 mg oxazepam dose.
(§3) One prototype was prepared using a dry granulation process while the other was prepared using a wet granulation process. In both prototypes, metyrapone was formulated intragranularly while oxazepam included extragranularly. The excipients used in each case were similar to those used on oxazepam and metyrapone minitabs formulations. The dry granulation process was facilitated through roller compaction of the intragranular components.
(§4) Samples of API mixtures and prototype tablets (created from slugs compressed on a Carver press) were stored at 25° C./60% RH and at 40° C./75% RH in glass vials with screw caps. Samples were removed from storage after 4 weeks and analyzed for metyrapone, oxazepam and related substances using both HPLS analytical methods (Test methods A and B). Different dilutions were required to appropriately analyze for metyrapone and oxazepam from the mixtures due to the large amount of metyrapone relative to oxazepam.
(§5) The compatibility of metyrapone and oxazepam was evaluated by comparing potency and impurity profiles of the following samples: • 1. Neat oxazepam API stored for 4 weeks at 25° C./60% RH and 40° C./75% RH. • 2. Neat metyrapone API stored for 4 weeks at 25° C./60% RH and 40° C./75% RH. • 3. Binary mixtures of oxazepam and metyrapone APIs at 1:15 and 1:30 ratios stored for 4 weeks at 25° C./60% RH and 40° C./75% RH. • 4. Prototype blend prepared using the wet granulation approach (metyrapone—intragranular; oxazepam—extragranular) stored for 4 weeks at 25° C./60% RH and 40° C./75% RH. • 5. Prototype blend prepared using the dry granulation approach (roller compacted metyrapone—intragranular; oxazepam—extragranular) stored for 4 weeks at 25° C./60% RH and 40° C./75% RH.
(§6) For each active pharmaceutical component, the potency and impurity values of neat API were compared with those for the binary mixtures and prototypes. Since the methods are unable to distinguish impurities from the two actives, compatibility was assessed by the increase in total impurities and decrease in potency values of the actives. The results are shown in Table 17 for oxazepam and Table 18 for metyrapone. The % peak areas for API admixtures and prototypes are proportional to the ratio of the two actives in the corresponding samples.

[3] = Oxazepam Assay and Related Substances after 4 Weeks of Storage (HPLC Test Method A); conditions: for Assay at 1 mo (oxazepam) / Total imps at 1 mo: oxazepam method (Test Method A)
Description: as §1
Accurately weigh samples into a volumetric flask. Add approximately 2 mL of water to disintegrate the samples. Add sample diluent, sonicate for 15 minutes, shake for 15 minutes, and then bring to volume with sample diluent and mix well. Filter the solution, dilute as needed with the sample diluent for analysis, and analyze by HPLC using the chromatographic conditions below.
as §2, §3, §4, §5, §6

[4] = 25 C. (25° C./60% RH), 4 weeks storage, Test Method B
[5] = 40 C. (40° C./75% RH), 4 weeks storage, Test Method B
[6] = 25 C. (25° C./60% RH), 4 weeks storage, Test Method A
[7] = 40 C. (40° C./75% RH), 4 weeks storage, Test Method A

Compound: CC(C)(C(=O)c1cccnc1)c1cccnc1 [metyrapone neat, metyrapone]
- impact of the incompatibility on metyrapone ([1]; 4 weeks storage combined with oxazepam): minimal
- % Peak area, RRT 0.27 [2, 4]: 0.14 % Peak area
- % Peak area, RRT 0.48 [2, 4]: 0.05 % Peak area
- % Peak area, RRT 0.67 [2, 4]: 0.01 % Peak area
- % Peak area, RRT 1.00 * (Metyrapone) [2, 4]: 99.44 % Peak area
- % Peak area, RRT 1.09 [2, 4]: 0.07 % Peak area
- Assay at 1 mo (metyrapone) ([2]; 25 C. (25° C./60% RH)): 100.60%
- Total imps at 1 mo ([2]; 25 C. (25° C./60% RH)): 0.26%
- % Peak area, RRT 0.27 [2, 5]: 0.15 % Peak area
- % Peak area, RRT 0.48 [2, 5]: 0.06 % Peak area
- % Peak area, RRT 1.00 * (Metyrapone) [2, 5]: 99.42 % Peak area
- % Peak area, RRT 1.09 [2, 5]: 0.09 % Peak area
- Assay at 1 mo (metyrapone) ([2]; 40 C. (40° C./75% RH)): 99.50%
- Total imps at 1 mo ([2]; 40 C. (40° C./75% RH)): 0.30%

Compound: O=C1Nc2ccc(Cl)cc2C(c2ccccc2)=NC1O (centres unmarked) [oxazepam neat API, oxazepam]
- oxazepam degradation ([1]; in 4 weeks at 40° C./75% RH, combined with metyrapone (admixtures and prototypes)): up to 50%
- % Peak area, RRT 1.00 ** (Oxazepam) [3, 6]: 99.45 % Peak area
- % Peak area, RRT 1.28 [3, 6]: 0.25 % Peak area
- % Peak area, RRT 1.333 [3, 6]: 0.16 % Peak area
- Assay at 1 mo (oxazepam) ([3]; 25 C. (25° C./60% RH)): 95.00%
- Total imps at 1 mo ([3]; 25 C. (25° C./60% RH)): 0.41%
- % Peak area, RRT 1.00 ** (Oxazepam) [3, 7]: 99.67 % Peak area
- % Peak area, RRT 1.28 [3, 7]: 0.15 % Peak area
- % Peak area, RRT 1.329 [3, 7]: 0.05 % Peak area
- % Peak area, RRT 1.333 [3, 7]: 0.08 % Peak area
- Assay at 1 mo (oxazepam) ([3]; 40 C. (40° C./75% RH)): 93.20%
- Total imps at 1 mo ([3]; 40 C. (40° C./75% RH)): 0.28%
